Results as given in patent US20100063089A1, “SUCCINATE SALT OF 2-((4-(1-METHYL-4-PYRIDIN-4-YL)-1H-PYRAZOL-3-YL)PHENOXY)METHYL)QUINOLINE” (PFIZER INC, priority 2006, published 2010).

Columns and labels:
[1] = solid-state properties for formulation (deliquescence, hygroscopicity); assay type: physicochemical; conditions: solid salt
[2] = isothermal moisture sorption test; assay type: physicochemical; conditions: at 90±2% relative humidity; isothermal 25.1±0.1° C.; conducted from approximately 1% to 90% (±2%) humidity
Procedure: In another embodiment, the succinate salt increases in weight by less than 0.5% at 90±2% relative humidity in an isothermal (25.1±0.1° C.) moisture sorption test conducted from approximately 1% to 90% (±2%) humidity.

deliquescence [1]: not deliquescent
hygroscopicity [1]: non-hygroscopic
increase in weight in moisture sorption test [2]: less than 0.5%
Structure (SMILES): Cn1cc(-c2ccncc2)c(-c2ccc(OCc3ccc4ccccc4n3)cc2)n1.O=C(O)CCC(=O)O [succinate salt, succinate salt of 2-((4-(1-methyl-4-(pyridin-4-yl)-1H-pyrazol-3-yl)phenoxy)methyl)quinoline]
